Legend:
Type in all cases: in vivo
hair regrowth [1] = assay: hair regrowth after shaving in dogs treated s.c. twice daily for 13 days, versus saline control dog; settings: total daily dose 4-3 mg/kg; for relative order of hair regrowth: approximately 6 weeks post-drug; for hair regrowth compared with control dog: shaved 3 days post-drug, observed approximately 6 weeks post-drug
Method: Several dogs were treated with (R,R) or (S,S)—(HO)2DEHSPM s.c. twice daily for 13 days. The total daily dose was 4-3 mg/kg. One additional dog served as a saline-treated control animal. All of the dogs were Holter monitored once weekly for evidence of cardiac rhythm disturbances. A post-drug Holter monitoring was performed 3 days post-drug and hair was shaved at that time to allow for the placing of the leads.

[2] = tested on: hair growth in the shaved area; assay: hair re-growth in partially shaven mice; settings: C57/B16 mice
Method: Fourteen C57/B16 mice were partially shaven; one was maintained as a control and to the remainder was administered diethyl-homospermine [10 mg/kg-0.01% solution (Bid)], six times daily over 9 days.
The above test (Example 1) was repeated except that the dosage of polyamine was 7.5 mg/kg.

hair regrowth [3] = assay: hair regrowth after shaving in dogs treated s.c. for 20 days; settings: s.c. 4.3 mg/kg/d for 20 days, shaved 5 days post-drug, observed approximately 8 weeks post-drug
Method: Two dogs were treated with (R,R)—(HO)2DEHSPM (dihydroxydiethylhomospermine) s.c. at a dose of 4.3 mg/kg/d for 20 days. The dogs were Holter-Monitored once weekly for evidence of cardiac rhythm disturbances. A post-drug Holter monitoring was performed 5 days post-drug and hair was shaved at that time to allow for the placing of the leads.

Compound | relative order of hair regrowth (hair regrowth [1]) | hair regrowth compared with control dog (hair regrowth [1]) | resumption of normal hair growth in the shaved area ([2]; 10 mg/kg-0.01% solution (Bid), six times daily over 9 days) | normal hair re-growth in the shaved areas ([2]; dosage 7.5 mg/kg, otherwise as Example 1) | hair regrowth at shaved Holter lead sites (hair regrowth [3])
CCNC[C@@H](O)CCNCCCCNCC[C@H](O)CNCC [(S,S)—(HO)2DEHSPM, (S,S)-dihydroxydiethylhomospermine] | control dog >(S,S)—(HO)2DEHSPM dogs>(R,R)—HO2DEHSPM dogs | this was not the case with the treated animals |  |  | 
CCNCCCCNCCCCNCCCCNCC [diethyl-homospermine, N,N′-diethylhomospermine] |  |  | The control resumed normal hair growth immediately in the shaved area, unlike the remainder of the mice in the test | the mice treated with the polyamine did not | 
CCNC[C@H](O)CCNCCCCNCC[C@@H](O)CNCC [(R,R)—(HO)2DEHSPM, (R,R)-dihydroxydiethylhomospermine] | control dog >(S,S)—(HO)2DEHSPM dogs>(R,R)—HO2DEHSPM dogs | this was not the case with the treated animals |  |  | hair from the last Holter monitoring had not grown back
